PubChem BioAssay (NCI)
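Grown in 96-well plates, cells were treated for 48 hours with each compound at five concentrations. Insufficient inhibition: endpoint recorded as highest concentration tested. GI50 marks 50% less growth. TGI: concentration producing complete growth inhibition.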

Legend:
Experiment in all cases: NCI anticancer screen, dose series, 48 h
MDA-MB-435 = tested on: MDA-MB-435
U251 CNS = tested on: U251 CNS
HOP-92 NSCLC = tested on: HOP-92 NSCLC
SN12C renal = tested on: SN12C renal
OVCAR-8 ovarian = tested on: OVCAR-8 ovarian
HS 578T breast = tested on: HS 578T breast
A498 renal = tested on: A498 renal
HCT-15 colon = tested on: HCT-15 colon
MDA-MB-231 breast = tested on: MDA-MB-231 breast
UACC-257 melanoma = tested on: UACC-257 melanoma

Row | SMILES | GI50 (MDA-MB-435) | TGI (MDA-MB-435) | GI50 (U251 CNS) | TGI (U251 CNS) | GI50 (HOP-92 NSCLC) | TGI (HOP-92 NSCLC) | GI50 (SN12C renal) | TGI (SN12C renal) | GI50 (OVCAR-8 ovarian) | TGI (OVCAR-8 ovarian) | GI50 (HS 578T breast) | TGI (HS 578T breast) | GI50 (A498 renal) | TGI (A498 renal) | GI50 (HCT-15 colon) | TGI (HCT-15 colon) | GI50 (MDA-MB-231 breast) | TGI (MDA-MB-231 breast) | GI50 (UACC-257 melanoma) | TGI (UACC-257 melanoma)
1 | C=C1C(=O)O[C@H]2[C@H]1CC/C(COC(=O)C(=O)c1c[nH]c3ccc(Cl)cc13)=C\CC[C@@]1(C)O[C@@H]21 | 1800 nM | 4.23 µM | 1900 nM | 3.45 µM | 1860 nM | 3.42 µM | 1840 nM | 4.17 µM | 2320 nM | 6.82 µM | 3520 nM | 29.4 µM | 2750 nM | 5.54 µM | 382 nM | 1.63 µM | 1840 nM | 4.03 µM | 2000 nM | 4.13 µM
2 | O=C(Nc1cc(C(F)(F)F)cc(C(F)(F)F)c1)Nc1ccc(OCc2nnc(-c3ccc(Cl)cc3)o2)c(F)c1 | 2600 nM | 9.78 µM | 1490 nM | 3.24 µM | 1140 nM | 4.06 µM | 2610 nM | 15.7 µM | 1600 nM | 5.73 µM | 2380 nM | 12.1 µM | 1910 nM | 6.5 µM | 1990 nM | 14 µM | 1990 nM | 4.93 µM | 1620 nM | 5.01 µM
3 | COC(=O)C1=CO[C@@H](OC2OC(CO)C(O)C(O)C2O)[C@@H]2[C@H](C)[C@@H](O)[C@@H](O)[C@]12O (some centres undefined) | – | > 100 µM | – | > 100 µM | – | > 100 µM | – | > 100 µM | – | > 100 µM | – | > 100 µM | – | > 100 µM | – | > 100 µM | – | > 100 µM | – | > 100 µM
4 | Cc1[nH]c(=O)nc(N/N=C/c2ccc(Cl)cc2)c1C(=O)Nc1ccc(Cl)cc1 | – | > 100 µM | – | 23.5 µM | – | 77.8 µM | – | > 100 µM | – | 37.5 µM | – | > 100 µM | – | 57.2 µM | – | > 100 µM | – | 26.2 µM | – | > 94.6 µM
5 | C=C1[C@@H](O)C[C@H]2C(C)(C)C[C@H](Cl)C[C@]2(C)[C@H]1C[C@H](O)[C@H]1CC(=O)NC1=O | 16 nM | 0.312 µM | < 10 nM | 0.108 µM | < 11.5 nM | 0.179 µM | < 10 nM | 0.108 µM | 15.5 nM | 0.163 µM | 19.2 nM | 0.274 µM | 20.7 nM | 0.0723 µM | 25.5 nM | 0.596 µM | 15 nM | 0.19 µM | 19.3 nM | 0.122 µM
6 | Cc1ccc(S(=O)(=O)NNC(C[N+](=O)[O-])c2ccccc2)cc1 (centres undefined) | – | 11.2 µM | – | 60.5 µM | – | > 100 µM | – | > 100 µM | – | 46.1 µM | – | > 100 µM | – | 30.8 µM | – | 39.5 µM | – | 81.3 µM | – | 37.5 µM
7 | CNC12C3C4C1C1C2C3C41C(=O)N[C@H](C(=O)N(C)[C@H](C[C@@H](OC(C)=O)c1nc(C(=O)N[C@@H](Cc2ccccc2)C[C@H](C)C(=O)OC)cs1)C(C)C)C1CC1 (some centres undefined) | 46.7 nM | 0.32 µM | 587 nM | > 15 µM | 1800 nM | 8.93 µM | 612 nM | > 15 µM | 523 nM | > 15 µM | 354 nM | > 10.3 µM | 1060 nM | > 10.9 µM | 831 nM | > 15 µM | 402 nM | 3.33 µM | 2990 nM | > 15 µM
8 | Cc1ccc(N(/C=C/C(=O)C(F)(F)F)CC(=O)c2ccc(Cl)c(Cl)c2)cc1 | 1920 nM | 3.82 µM | 10700 nM | 22.6 µM | 8770 nM | 21.1 µM | 13100 nM | 25.8 µM | 14100 nM | 27.1 µM | 2350 nM | 17.1 µM | 8050 nM | 20.9 µM | 3640 nM | 14.5 µM | 3120 nM | 17.9 µM | 10300 nM | 22 µM
9 | O=C1C(CO)=C[C@@H](O)[C@H]2O[C@@H]12 | – | 78.6 µM | – | > 100 µM | – | > 100 µM | – | 36.3 µM | – | > 100 µM | – | > 100 µM | – | > 100 µM | – | > 100 µM | – | > 100 µM | – | –
10 | COc1ccc2c(c1)C(=O)c1c-2n(CCCN=[N+]=[N-])c(=O)c2cc(N)ccc12 | > 100000 nM | > 100 µM | > 100000 nM | > 100 µM | 58800 nM | > 100 µM | > 100000 nM | > 100 µM | > 100000 nM | > 100 µM | > 100000 nM | > 100 µM | > 100000 nM | > 100 µM | > 100000 nM | > 100 µM | > 100000 nM | > 100 µM | > 100000 nM | > 100 µM
11 | CCOc1ccc(NC(=O)c2cc3ccccc3cc2O)cc1 | > 100000 nM | > 100 µM | 45900 nM | > 100 µM | 11700 nM | 38.5 µM | > 100000 nM | > 100 µM | 47800 nM | > 100 µM | 59800 nM | > 100 µM | 86400 nM | > 100 µM | > 100000 nM | > 100 µM | 53800 nM | > 100 µM | > 100000 nM | > 100 µM
12 | O=C(O)c1nnsc1-c1csnn1 | – | > 100 µM | – | > 100 µM | – | > 100 µM | – | > 100 µM | – | > 100 µM | – | > 100 µM | – | > 100 µM | – | > 100 µM | – | > 100 µM | – | > 100 µM
13 | N=C1N=C(N)S/C1=C\c1ccc2ncccc2c1 | > 25000 nM | > 25 µM | > 25000 nM | > 25 µM | > 25000 nM | > 25 µM | > 25000 nM | > 25 µM | > 25000 nM | > 25 µM | > 19100 nM | > 25 µM | 13700 nM | > 25 µM | > 25000 nM | > 25 µM | > 25000 nM | > 25 µM | > 25000 nM | > 25 µM
14 | CCOc1ccc2c(c1)C(=O)c1c-2n(CCCN)c(=O)c2cc([N+](=O)[O-])ccc12 | 294 nM | 1.95 µM | 10.3 nM | 1.22 µM | 96.9 nM | 1.91 µM | 66.7 nM | 1.93 µM | 16.8 nM | 0.147 µM | 1930 nM | 4.04 µM | 679 nM | 2.06 µM | 209 nM | 1.24 µM | 1810 nM | 3.43 µM | 1190 nM | 2.44 µM
